Test results taken from ChEMBL document CHEMBL4477233, “Discovery of novel TAOK2 inhibitor scaffolds from high-throughput screening” (Bioorg Med Chem Lett, 2016).

Key:
[1] = target: T1, Serine/threonine-protein kinase TAO2 (Rattus norvegicus, UniProt Q9JLS3); assay: Inhibition of rat TAOK2 (1 to 320 residues) expressed in Baculovirus/insect cell expression system using MBP as substrate measured after 10 mins in presence of [32P]ATP by radiometric assay
T1 sequence (Q9JLS3 whole entry): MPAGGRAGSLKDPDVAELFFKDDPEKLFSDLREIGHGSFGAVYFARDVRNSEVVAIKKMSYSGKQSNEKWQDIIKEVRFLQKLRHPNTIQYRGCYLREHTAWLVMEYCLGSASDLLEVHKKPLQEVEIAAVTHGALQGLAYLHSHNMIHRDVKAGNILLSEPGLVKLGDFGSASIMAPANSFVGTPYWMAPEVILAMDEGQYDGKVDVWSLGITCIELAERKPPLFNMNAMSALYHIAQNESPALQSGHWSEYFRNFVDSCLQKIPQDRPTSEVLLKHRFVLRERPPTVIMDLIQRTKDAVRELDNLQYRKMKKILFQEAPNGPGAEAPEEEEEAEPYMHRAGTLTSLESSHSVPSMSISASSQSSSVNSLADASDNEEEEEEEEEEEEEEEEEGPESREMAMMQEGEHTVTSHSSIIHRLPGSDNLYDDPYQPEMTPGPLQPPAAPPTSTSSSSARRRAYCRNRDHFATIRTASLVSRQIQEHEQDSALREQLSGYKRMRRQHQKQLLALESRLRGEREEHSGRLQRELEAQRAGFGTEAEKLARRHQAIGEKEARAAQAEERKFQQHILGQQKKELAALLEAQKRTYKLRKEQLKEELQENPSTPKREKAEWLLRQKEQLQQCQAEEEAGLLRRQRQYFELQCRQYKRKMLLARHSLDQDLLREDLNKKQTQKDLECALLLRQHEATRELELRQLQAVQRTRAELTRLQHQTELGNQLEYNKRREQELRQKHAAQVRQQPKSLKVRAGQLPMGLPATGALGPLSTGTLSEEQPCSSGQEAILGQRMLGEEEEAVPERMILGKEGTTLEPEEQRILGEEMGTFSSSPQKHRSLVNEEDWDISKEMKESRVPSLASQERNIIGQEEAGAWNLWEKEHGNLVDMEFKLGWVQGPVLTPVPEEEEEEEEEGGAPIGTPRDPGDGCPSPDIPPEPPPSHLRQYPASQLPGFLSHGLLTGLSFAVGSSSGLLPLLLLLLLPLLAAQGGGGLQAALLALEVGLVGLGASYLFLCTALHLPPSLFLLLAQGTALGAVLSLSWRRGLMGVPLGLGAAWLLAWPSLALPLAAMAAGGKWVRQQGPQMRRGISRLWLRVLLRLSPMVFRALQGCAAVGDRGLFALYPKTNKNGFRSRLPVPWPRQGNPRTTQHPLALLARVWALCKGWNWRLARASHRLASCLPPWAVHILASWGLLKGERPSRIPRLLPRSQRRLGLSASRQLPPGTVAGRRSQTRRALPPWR

[2] = target: Mitogen-activated protein kinase kinase kinase kinase 4 (Homo sapiens) (UniProt O95819); assay: Inhibition of human HGK; details: concentration not given here
Sequence of Mitogen-activated protein kinase kinase kinase kinase 4 (Homo sapiens) (O95819 2-1239 limits assumed): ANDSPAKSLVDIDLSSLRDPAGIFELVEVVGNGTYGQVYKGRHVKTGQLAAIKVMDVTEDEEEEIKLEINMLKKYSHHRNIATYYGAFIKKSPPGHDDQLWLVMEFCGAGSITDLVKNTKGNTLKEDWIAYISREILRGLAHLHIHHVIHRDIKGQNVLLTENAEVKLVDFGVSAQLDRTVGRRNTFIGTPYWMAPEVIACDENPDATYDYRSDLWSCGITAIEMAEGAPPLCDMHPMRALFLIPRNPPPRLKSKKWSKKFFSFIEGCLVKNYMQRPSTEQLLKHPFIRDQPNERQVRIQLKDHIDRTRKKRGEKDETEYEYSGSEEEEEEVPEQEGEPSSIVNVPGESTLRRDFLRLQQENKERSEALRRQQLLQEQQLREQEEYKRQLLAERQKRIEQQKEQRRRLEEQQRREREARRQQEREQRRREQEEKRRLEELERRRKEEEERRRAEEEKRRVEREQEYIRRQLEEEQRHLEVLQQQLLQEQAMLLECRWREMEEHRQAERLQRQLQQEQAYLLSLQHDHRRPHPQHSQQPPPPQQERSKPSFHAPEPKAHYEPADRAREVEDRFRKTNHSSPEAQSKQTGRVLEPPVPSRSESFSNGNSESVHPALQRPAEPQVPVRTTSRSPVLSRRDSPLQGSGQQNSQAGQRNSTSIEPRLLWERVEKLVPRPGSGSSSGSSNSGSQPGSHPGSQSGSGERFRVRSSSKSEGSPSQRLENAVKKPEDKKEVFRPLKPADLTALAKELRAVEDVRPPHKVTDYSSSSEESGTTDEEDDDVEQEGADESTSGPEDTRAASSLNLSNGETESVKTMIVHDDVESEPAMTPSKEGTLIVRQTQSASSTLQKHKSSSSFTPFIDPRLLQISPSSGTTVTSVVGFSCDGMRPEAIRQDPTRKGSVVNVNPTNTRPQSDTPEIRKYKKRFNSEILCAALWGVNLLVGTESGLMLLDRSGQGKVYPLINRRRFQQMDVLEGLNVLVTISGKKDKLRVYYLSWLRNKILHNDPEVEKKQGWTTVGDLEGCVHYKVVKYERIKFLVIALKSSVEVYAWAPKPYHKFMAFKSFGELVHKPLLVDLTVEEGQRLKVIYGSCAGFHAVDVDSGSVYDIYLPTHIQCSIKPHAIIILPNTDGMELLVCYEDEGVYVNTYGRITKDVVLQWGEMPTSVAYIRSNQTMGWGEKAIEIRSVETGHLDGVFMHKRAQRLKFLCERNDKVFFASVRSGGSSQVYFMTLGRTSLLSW

SMILES: CCC(=O)Nc1nc(C)c(-c2csc(Nc3cc(OC)ccc3OC)n2)s1
- IC50 [1]: 300 nM
- inhibition [2]: > 50%
